# Laboratory results taken from US11040031B2, “Pyrazole derivatives as MALT1 inhibitors” (Janssen Pharmaceutica NV, priority 2018, dated 2021).
# Where two headings read alike, the source gives them in different places.
# Assays:
# [1] = molecular target: T1, full-length MALT1 protein (Strep-MALT1(1-824)-His) (Homo sapiens, UniProt Q9UDY8); assay: biochemical;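 further: fluorogenic LRSR-AMC substrate cleavage by MALT1, 50 min compound preincubation then 4 h reaction at RT, 11-point dilution from 30 µM, scaled between enzyme-free and untreated enzyme controls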
# T1 sequence (Q9UDY8 1-824): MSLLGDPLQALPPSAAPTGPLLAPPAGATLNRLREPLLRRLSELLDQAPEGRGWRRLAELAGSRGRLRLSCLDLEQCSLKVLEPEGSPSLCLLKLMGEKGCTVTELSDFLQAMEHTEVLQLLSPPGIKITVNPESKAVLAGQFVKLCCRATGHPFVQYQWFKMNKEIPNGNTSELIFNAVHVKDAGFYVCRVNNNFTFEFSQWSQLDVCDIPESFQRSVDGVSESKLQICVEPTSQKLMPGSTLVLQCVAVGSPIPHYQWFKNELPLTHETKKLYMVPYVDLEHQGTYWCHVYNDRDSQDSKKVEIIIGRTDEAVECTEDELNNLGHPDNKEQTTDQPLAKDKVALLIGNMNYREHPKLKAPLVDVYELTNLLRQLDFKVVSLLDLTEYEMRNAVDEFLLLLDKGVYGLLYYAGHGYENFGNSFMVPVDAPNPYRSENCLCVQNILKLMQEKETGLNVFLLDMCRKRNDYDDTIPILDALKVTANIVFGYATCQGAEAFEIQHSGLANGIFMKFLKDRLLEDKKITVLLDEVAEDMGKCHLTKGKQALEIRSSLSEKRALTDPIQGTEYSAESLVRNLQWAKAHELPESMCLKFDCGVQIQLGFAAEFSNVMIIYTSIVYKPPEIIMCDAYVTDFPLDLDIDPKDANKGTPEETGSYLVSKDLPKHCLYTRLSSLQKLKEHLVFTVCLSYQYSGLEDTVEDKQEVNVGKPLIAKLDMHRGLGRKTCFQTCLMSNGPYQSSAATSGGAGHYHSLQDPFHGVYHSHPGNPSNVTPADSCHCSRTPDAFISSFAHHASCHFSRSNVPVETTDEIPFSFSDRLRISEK
# Method: MALT1 protease activity was assessed in an in vitro assay using a tetrapeptide as substrate and full-length MALT1 protein (Strep-MALT1(1-824)-His) purified from baculovirus-infected insect cells. The tetrapeptide LRSR is coupled to AMC (7-amino-4-methylcoumarin) and provides a quenched, fluorescent substrate for the MALT1 protease (SM Biochemicals). Cleavage of AMC from the Arginine residue results in an increase in coumarin fluorescence measured at 460 nm (excitation 355 nm). […] Test compounds were spotted at 50 nL in 100% DMSO per well of a black 384-Proxiplate (Perkin Elmer). Test compound concentrations ranged from 30 μM to 0.5 nM using 11 dilution steps (1:3). Background signal was measured from control wells containing assay buffer without enzyme which functions as low control (LC). High control (HC) values were generated using the reaction with enzyme but no compound treatment. Compounds were pre-incubated with MALT1 enzyme for 50 minutes at RT. Substrate was added subsequently and fluorescence was measured in Labsystems fluoroskan at excitation 355 nm and emission 460 nm to determine time 0. The reaction was subsequently incubated for 4 h at RT and fluorescence was measured. […] The enzyme reaction was linear during the 4 h incubation period.
# IC50 values were calculated using the following formula (Z prime should be >0.5):
# From this an IC50 value (inhibitory concentration causing 50% inhibition) can be obtained. An estimate of the slope of the plot in terms of the Hill coefficient was also obtained.
# With y=estimated response • UB=upper bound • LB=lower bound • h=hill
# [2] = tested on: Secretion of IL6 by OCI-LY3 ABC-DLBCL cells; assay: Human IL6 Mesoscale assay (OCI-LY3); type: cell-based; conditions: OCI-LY3 cells, 24 h incubation, supernatant, MSD V-Plex, read-out: Human IL6 Mesoscale assay (OCI-LY3)
# How it was run: (§1)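 TMD8 or OCI-LY3 ABC-DLBCL cells incubated with compound 24 h at 37° C without beta-mercaptoethanol. Secreted IL6 and IL10 in supernatant quantified by MSD electrochemiluminescence immunoassay; DMSO wells define maximum signal.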
# [3] = tested on: Secretion of IL10 by TMD8 ABC-DLBCL cells; assay: Human IL10 Mesoscale assay (TMD-8); type: cell-based; conditions: read-out: Human IL10 Mesoscale assay (TMD-8)
# Method: (§2) NFKB signaling regulates the secretion of multiple cytokines, including IL6 and IL10. Secretion of the cytokines IL6 and IL10 by TMD8 or OCI-LY3 ABC-DLBCL cells was measured using a mesoscale assay.
# (§3) Cell passage number should not exceed 30. Cells should be kept between 0.5-2.5 million cells per mL during culturing and cells should be supplemented every 2-3 days with fresh 50 µM beta-mercaptoenthanol. No beta-mercaptoethanol was used during the mesoscale assay.
# (§4) DMSO control wells were used to determine the maximum signal (High Control (HC)). […] Compounds and cells were incubated for 24 h at 37° C. and 5% CO2 (assay volume is 150 μL). After 24 h of incubation 50 μL of the supernatant was transferred to a MSD plate (V-Plex Proinflammation Panel 1 (human) kit, Mesoscale (MSD)) and incubated for 2 h with vigorous shaking (600 rpm) at room temperature. Following incubation, plates were washed 3× with PBS+0.05% Tween-20 and 25 μL detection antibody solution (IL6 & IL10 antibodies in diluent 3 (MSD)) was added per well followed by 2 h of incubation with vigorous shaking (600 rpm) at room temperature. After 3× washes with PBS+0.05% Tween-20, plates were incubated with 150 μL 2× Read Buffer T and read on SECTOR imager.
# [4] = tested on: Secretion of IL10 by OCI-LY3 ABC-DLBCL cells; assay: Human IL10 Mesoscale assay (OCI-LY3); type: cell-based; conditions: OCI-LY3 cells, 24 h incubation, supernatant, MSD V-Plex, read-out: Human IL10 Mesoscale assay (OCI-LY3)
# How it was run: as §1
# [5] = tested on: Secretion of IL6 by TMD8 ABC-DLBCL cells; assay: Human IL6 Mesoscale assay (TMD-8); type: cell-based; conditions: read-out: Human IL6 Mesoscale assay (TMD-8)
# Method: as §2, §3, §4
# [6] = tested on: OCI-Ly3 ABC-DLBCL cell line; assay: 4-day proliferation assay OCI-Ly3; type: cell-based; conditions: Homo sapiens, read-out: Anti-proliferation: OCI-LY-3 IC50
# Method: To assess anti-proliferative effects, MALT1 inhibitor test compounds were tested in 4-day proliferation assays using three different DLBCL cell lines.
# Cells should be kept between 0.5-2.5 million cells per mL during culturing and cells should be supplemented every 2-3 days with fresh 50 μM beta-mercaptoenthanol. No beta-mercaptoethanol is used during the proliferation assay. OCI-Ly7 cells were propagated in IMDM (ThermoFisher) supplemented with 10% fetal bovine serum (HyClone), 2 mM L-glutamine (Sigma Aldrich) and 50 μg/mL Gentamycin. Cell passage numbers should not exceed 30.
# 10,000 TMD8, 10,000 OCI-Ly3 or 2,000 OCI-Ly7 cells were seeded in 100 μL media per well and incubated for 4 days at 37° C. and 5% CO2. Cell plating numbers were chosen based on growth curves to ensure linear cell growth. After 4 days of incubation 50 μl CellTiterGLO reagent (Promega) were added to each well and luminescence was measured on the Envision after 10 min of incubation at room temperature.
# [7] = TMD8 cells, 24 h incubation, supernatant, MSD V-Plex
# [8] = 96 h, 10,000 OCI-Ly3 cells per well, 4 days, CellTiterGLO
Structure (SMILES),IC50 [1],IC50 [2],"IC50 [3, 7]",IC50 [4],"IC50 [5, 7]","IC50 [6, 8]","IC50 ([6]; OCI-Ly3, 96 h)","IC50 ([3]; TMD8, 24 h)","IC50 ([5]; TMD8, 24 h)"
"Cc1ccnc(-n2ncc(C(=O)Nc3cnc(-n4nccn4)c(Cl)c3)c2C(F)(F)F)c1 [Cpd 22, N-(5-chloro-6-(2H-1,2,3-triazol-2-yl)pyridin-3-yl)-1-(4-methylpyridin-2-yl)-5-(trifluoromethyl)-1H-pyrazole-4-carboxamide]",724 nM,–,–,–,–,–,490 nM,724 nM,437 nM
"Cc1cccnc1-n1ncc(C(=O)Nc2cnc(-n3nccn3)c(Cl)c2)c1C(F)(F)F [Cpd 3, N-(5-Chloro-6-(2H-1,2,3-triazol-2-yl)pyridin-3-yl)-1-(3-methylpyridin-2-yl)-5-(trifluoromethyl)-1H-pyrazole-4-carboxamide]",282 nM,–,832 nM,–,–,2460 nM,–,–,–
"O=C(Nc1cnc(-n2nccn2)c(Cl)c1)c1cnn(-c2ccncc2)c1C(F)(F)F [Cpd 4, N-(5-Chloro-6-(2H-1,2,3-triazol-2-yl)pyridin-3-yl)-1-(pyridin-4-yl)-5-(trifluoromethyl)-1H-pyrazole-4-carboxamide]",282 nM,–,933 nM,–,–,1050 nM,–,–,–
"O=C(Nc1cnc(-n2nccn2)c(Cl)c1)c1cnn(-c2ccc(F)cn2)c1C(F)(F)F [Cpd 7, N-(5-Chloro-6-(2H-1,2,3-triazol-2-yl)pyridin-3-yl)-1-(5-fluoropyridin-2-yl)-5-(trifluoromethyl)-1H-pyrazole-4-carboxamide]",912 nM,–,–,–,–,–,1550 nM,417 nM,407 nM
"O=C(Nc1cnc(-n2nccn2)c(Cl)c1)c1cnn(-c2ccc(F)cc2)c1C(F)(F)F [Cpd 18, N-(5-chloro-6-(2H-1,2,3-triazol-2-yl)pyridin-3-yl)-1-(4-fluorophenyl)-5-(trifluoromethyl)-1H-pyrazole-4-carboxamide]",151 nM,–,–,–,–,–,6460 nM,115 nM,–
"Cc1ccc(-n2ncc(C(=O)Nc3cnc(-n4nccn4)c(Cl)c3)c2C(F)(F)F)cc1 [Cpd 27, N-(5-chloro-6-(2H-1,2,3-triazol-2-yl)pyridin-3-yl)-1-(p-tolyl)-5-(trifluoromethyl)-1H-pyrazole-4-carboxamide]",851 nM,–,1380 nM,–,1200 nM,3890 nM,–,–,–
"N#Cc1ccc(-n2ncc(C(=O)Nc3cnc(-n4nccn4)c(Cl)c3)c2C(F)(F)F)cc1 [Cpd 19, N-(5-chloro-6-(2H-1,2,3-triazol-2-yl)pyridin-3-yl)-1-(4-cyanophenyl)-5-(trifluoromethyl)-1H-pyrazole-4-carboxamide]",132 nM,–,117 nM,–,–,7940 nM,–,–,–
"O=C(Nc1cnc(-n2nccn2)c(Cl)c1)c1cnn(-c2cccc(F)c2)c1C(F)(F)F [Cpd 20, N-(5-chloro-6-(2H-1,2,3-triazol-2-yl)pyridin-3-yl)-1-(3-fluorophenyl)-5-(trifluoromethyl)-1H-pyrazole-4-carboxamide]",562 nM,–,–,–,–,–,12600 nM,1000 nM,–

# Continued, values first:
IC50 [1],IC50 [2],"IC50 [3, 7]",IC50 [4],"IC50 [5, 7]","IC50 [6, 8]","IC50 ([6]; OCI-Ly3, 96 h)","IC50 ([3]; TMD8, 24 h)","IC50 ([5]; TMD8, 24 h)",Structure (SMILES)
126 nM,741 nM,1350 nM,794 nM,1100 nM,–,–,–,–,"N#Cc1cc(NC(=O)c2cnn(-c3nccc(N)c3Cl)c2C(F)(F)F)cnc1-n1nccn1 [Cpd 120, 1-(4-amino-3-chloropyridin-2-yl)-N-(5-cyano-6-(2H-1,2,3-triazol-2-yl)pyridin-3-yl)-5-(trifluoromethyl)-1H-pyrazole-4-carboxamide]"
191 nM,–,1350 nM,–,550 nM,1100 nM,–,–,–,"CN1CCOc2c1cccc2-n1ncc(C(=O)Nc2cnc(-n3nccn3)c(C#N)c2)c1C(F)(F)F [Cpd 132, N-(5-cyano-6-(2H-1,2,3-triazol-2-yl)pyridin-3-yl)-1-(4-methyl-3,4-dihydro-2H-benzo[b][1,4]oxazin-8-yl)-5-(trifluoromethyl)-1H-pyrazole-4-carboxamide]"
148 nM,–,151 nM,–,145 nM,437 nM,–,–,–,"N#Cc1cc(NC(=O)c2cnn(-c3cccc4c3OCCO4)c2C(F)(F)F)cnc1-n1nccn1 [Cpd 49, N-(5-cyano-6-(2H-1,2,3-triazol-2-yl)pyridin-3-yl)-1-(2,3-dihydrobenzo[b][1,4]dioxin-5-yl)-5-(trifluoromethyl)-1H-pyrazole-4-carboxamide]"
389 nM,–,1230 nM,–,490 nM,11000 nM,–,–,–,"N#Cc1cc(NC(=O)c2cnn(-c3ncccc3Cl)c2C(F)(F)F)cnc1-n1nccn1 [Cpd 44, 1-(3-Chloropyridin-2-yl)-N-(5-cyano-6-(2H-1,2,3-triazol-2-yl)pyridin-3-yl)-5-(trifluoromethyl)-1H-pyrazole-4-carboxamide]"
214 nM,–,–,–,–,–,4270 nM,1150 nM,1550 nM,"N#Cc1cc(NC(=O)c2cnn(-c3nccc(Cl)c3Cl)c2C(F)(F)F)cnc1-n1nccn1 [Cpd 36, N-(5-Cyano-6-(2H-1,2,3-triazol-2-yl)pyridin-3-yl)-1-(3,4-dichloropyridin-2-yl)-5-(trifluoromethyl)-1H-pyrazole-4-carboxamide]"
251 nM,–,2040 nM,–,2290 nM,2880 nM,–,–,–,"N#Cc1cc(NC(=O)c2cnn(-c3ncc(F)cc3Cl)c2C(F)(F)F)cnc1-n1nccn1 [Cpd 106, 1-(3-chloro-5-fluoropyridin-2-yl)-N-(5-cyano-6-(2H-1,2,3-triazol-2-yl)pyridin-3-yl)-5-(trifluoromethyl)-1H-pyrazole-4-carboxamide]"
234 nM,–,245 nM,–,437 nM,–,–,–,–,"N#Cc1cc(NC(=O)c2cnn(-c3cccc4c3CCN4)c2C(F)(F)F)cnc1-n1nccn1 [Cpd 130, N-(5-cyano-6-(2H-1,2,3-triazol-2-yl)pyridin-3-yl)-1-(indolin-4-yl)-5-(trifluoromethyl)-1H-pyrazole-4-carboxamide]"
229 nM,–,2240 nM,–,1020 nM,–,–,–,–,"CN1CCc2c1cccc2-n1ncc(C(=O)Nc2cnc(-n3nccn3)c(C#N)c2)c1C(F)(F)F [Cpd 128, N-(5-cyano-6-(2H-1,2,3-triazol-2-yl)pyridin-3-yl)-1-(1-methylindolin-4-yl)-5-(trifluoromethyl)-1H-pyrazole-4-carboxamide]"
